According to patent US12098193B2, “Netrin G1 as a biomarker for enhancing tumor treatment efficacy” (Institute For Cancer Research, priority 2017, dated 2024):
Peptide text beside a SMILES is read from it. * marks the point of attachment. Cbz = O=C(OCc1ccccc1)*; CH2F = FC*

Legend:
Format in all cases: cell-based
PDAC cells [1] = assay: cell death quantification of PDAC (CON or NGL1 knockout) cultured alone or co-cultured with CAFs in 3D under stressful conditions; details: stressful 3D culture (FIG. 9)
Procedure: NGL1 expression in PDAC determined the mode of cell death under stressful co-culture conditions with CAFs. Referring to FIG. 9 (panel A), cell death quantification of PDAC (CON or knockout) cultured alone in 3D was carried out. Referring to FIG. 9 (panel B), cell death quantification of PDAC (CON or knockout) co-cultured with CAFs (CON or knockout) in 3D was also carried out. […] Also, knockout of NetG1 I CAFs drove PDAC to higher amounts of death across all conditions.

PDAC cells [2] = assay: PDAC survival in stressful culture conditions (serum free, glutamine free) with CAFs; details: FIG. 7
Source text: Referring to FIG. 7 (panel B), extracellular matrix produced by NetG1 knockout CAFs is less supportive to PDAC survival. Referring to FIG. 7 (panel C), knockout of NetG1 in CAFs produced less glutamate and glutamine. Referring to FIG. 7 (panel D), knockout of NetG1 in CAFs and knockout of NGL1 in PDAC expressed less glutamine/glutamate related proteins.

PDAC cells [3] = assay: NK cell killing assay in 3D (CAF ECM); details: added to NetG1 knockout CAFs; FIG. 11 panel D
Procedure: Knockout of NetG1 in CAFs reduced immunosuppressive cytokine secretion, and CAFs protected PDAC from NK cell induced death in a NetG1/NGL1-dependent manner. Referring to FIG. 11 (panel A), a panel of immunosuppressive and pro-tumor cytokines (GM-CSF, IL-1Beta, CCL20, IL-6, IL-8, TGF-beta) and NK stimulating cytokine (IL-15) was performed. Knockout of NetG1 in CAFs produced less of all cytokines tested, but still produced significant levels of the anti-tumor NK cell cytokine IL-15. Referring to FIG. 11 (panel B), an assay was performed with Granzyme B and IFN-g production in NK cells stimulated with IL-2+IFN-γ (positive controls) or in co-culture conditions with conditioned media or direct contact with CAFs (CON vs knockout of NetG1). Knockout of NetG1 in CAF media or direct contact partially activated NK cells. Referring to FIG. 11 (panel C), an NK cell killing assay in 3D (CAF ECM) was carried out. Knockout of NetG1 in CAFs allowed NK cells to kill PDAC, while CON CAFs protected PDAC.

Structure (SMILES)	mode of cell death of NGL1+ PDAC under caspase inhibition (PDAC cells [1]; NGL1+ PDAC)	cell death of NGL- PDAC under caspase inhibition (PDAC cells [1]; NGL1 knockout PDAC)	PDAC survival after adding back to the stressful culture conditions (PDAC cells [2])	protection of PDAC from NK cell-induced death (PDAC cells [3])
CC(NC(=O)C(NC(=O)OCc1ccccc1)C(C)C)C(=O)NC(CC(=O)O)C(=O)CF (stereo not drawn) [zvad] (Cbz-Val-Ala-Asp-CH2F; configuration not given here)	driven to necroptotic death	protected from death	–	–
NC(=O)CC[C@H](N)C(=O)O [glutamine]	–	–	partially rescued PDAC survival	–
N[C@@H](CCC(=O)O)C(=O)O [glutamate]	–	–	partially rescued PDAC survival	partially restored protection
